Data from patent publication EP1935984A1 (priority 2006, dated 2008).

Columns and labels:
[1] = test system: wild type B.subtilis PB2; conditions: concentrations of 30mM and 40mM KSorbate
Experimental: On MB#1 first a test screen was performed on 15mM KSorbate.
The mutants and the wild type PB2 as a control were grown over night in liquid LB-media, pH6.4, 80mM MOPS and 100µg/ml spectinomycin (for the mutants only) at 37°C and 250rpm. The cultures were diluted to an OD600 of 0.2-0.25, grown to OD600=0.5 and again diluted to an OD600=0.020-0.025. At log-phase (OD600=0.2) a 200µl sample was taken, 10°fold to 10^-6fold diluted and ~5µl plated on the same LB-plates, pH6.4, 80mM MOPS containing 0mM, 15mM, 30mM and 40mM KSorbate. After 24h of incubation at 37°C pictures of the plates were taken.

[2] = test system: Bacillus subtilis wild-type strain PB2; assay: microbe, parasite or virus in culture
Experimental: (§1) To get a better understanding of the global response of Bacillus subtilis enduring sorbic acid stress, DNA microarray analysis was performed. We studied changes in gene expression after 10, 20, 30, 40 and 50 min of exposure to potassium sorbate in comparison to an untreated control. […] Changes in gene expression were studied using spotted oligo-arrays. The microarray consisted of 4100 gene specific 65-mer oligonucleotides, representing 4,100 of the 4,106 possible ORFs in B. subtilis (as reported for the B. subtilis genome at http://genolist.pasteur.fr/SubtiList/), spotted in duplo onto glass slides. Total RNA, isolated from the sorbate stressed and control cultures of each time-point, was labelled with the fluorescent dyes Cy5-dUTP and Cy3-dUTP respectively and hybridized onto the same slide. Biologically independent experiments were performed in duplo. […] Since the variation in differential expression measurements depends on the intensity (smaller variation at higher- and larger variation at lower fluorescence intensity levels), we applied an intensity-dependent method to identify differentially expressed genes (Yang et al., (2002)a, Genome Biol., 3: 0062). […] According to the KEGG (Kyoto Encyclopedia of Genes and Genomes, Kaneshisa M, et al (2006), Nucl. Acid Res., 34:354-357) database, this enzyme may also be involved in the degradation and biosynthesis of various metabolites, like arginine, proline, tyrosine, tryptophan and pyrine. […] YhcA is a possible multi-drug efflux pump and comprises of thirteen putative trans-membrane domains. YhcA is both a member of the drug resistance transporter EmrB/QacA subfamily and the major facilitator superfamily. […] We followed the growth by measuring the increase in OD600 and calculated growth inhibition percentages (Table 1). […] Table 1. Susceptibility of a selected mutant strain to sorbic acid stress.
(§2) All Bacillus subtilis strains used in this study are derivatives of the laboratory wild-type strain PB2 (kindly provided by C.W. Price) and are listed in Table 4. Mutant strains ATB002 (ureC), ATB007 (sigL) and ATB008 (sigM) were obtained by transformation of strain PB2 with chromosomal DNA of strains SF168U (Cruz-Ramos H., et al., (1997) J. Bacteriol., 179:3371-3373), QB5505 (Debarbouille M., et al., (1991), Proc. Natl. Acad. Sci., 181: 2059-2066) and AM1447 (Thackray PD and Moir A, (2003), J. Bacteriol., 185: 3491-3498), respectively. To obtain mutant strains ATB001 (fabHB), ATB003 (ycsF), ATB004 (yhcA), ATB005 (yhcB) and ATB006 (yxkJ), the wild-type strain PB2 was transformed with chromosomal DNA of strains YHFBd, YCSFd, YHCAd, YHCBd and YXKJd, respectively, which were all received from the Japanese Consortium for Functional Analysis of the B. subtilis Genome (JAFAN, http://bacillus.genome.ad.jp/). Transformants were selected on LB (Luria-Bertani) agar plates containing appropriate antibiotics, after overnight incubation at 37°C. Depending on the strain, the used antibiotics were chloramphenicol (6 µg/ml), erythromycin (0.5 µg/ml), spectinomycin (100 µg/ml) or kanamycin (10 µg/ml). Isolation of chromosomal DNA was performed according to Ward JB. (Ward JB et al, (1973), J. Bacteriol., 116: 719-726) and transformations were carried out as described by Kunst et al (Kunst F. et al, (1995) J. Bacteriol., 177: 2403-2407).

[3] = test system: mutant strain ATB004 (yhcA); assay: microbe, parasite or virus in culture; conditions: Bacillus subtilis, pH 6.4, read-out: GI% (growth inhibition)
Experimental: as §1, §2

[4] = pH 6.4, read-out: GI% (growth inhibition)

Q: How did the “growth of the wild type on sorbate plates” value [1] turn out when `C/C=C/C=C/C(=O)[O-].[K+]` [Potassium sorbate, potassium sorbate] was run?
A: Its value is “reduce the growth of the wild type”.

Q: And the inhibition at 3000 µM [2, 4]?
A: The inhibition at 3000 µM was 26.1%.

Q: And the inhibition at 6000 µM [2, 4]?
A: Its inhibition at 6000 µM is 40.7%.

Q: And the inhibition at 15000 µM [2, 4]?
A: Its inhibition at 15000 µM is 63.6%.

Q: And the inhibition at 30000 µM [2, 4]?
A: The inhibition at 30000 µM was 73.2%.

Q: And the inhibition of growth at 3000 µM ([2]; read-out: reduction in the growth rate)?
A: Its inhibition of growth at 3000 µM is 26%.

Q: And the inhibition at 3000 µM [3]?
A: The inhibition at 3000 µM was 45.1%.

Q: What about the inhibition at 6000 µM [3] of the same molecule?
A: The inhibition at 6000 µM was 50%.

Q: And the inhibition at 15000 µM [3]?
A: The inhibition at 15000 µM was 72%.

Q: And the inhibition at 30000 µM [3]?
A: The inhibition at 30000 µM was 79.3%.
